Read-outs that look alike come from different tables or passages of the source. *1 amine or outer side, *2 acyl side, *3 side chain or, on linkers, in order; H or OH if unused. Where a SMILES comes first, the peptide text is derived from it. Bridges are numbered along the chain shown (N, C = ends). [ ]: non-standard residue; d: D form. The star is where a group is joined. X14 = NC(=O)[C@H](CCCCNC(=O)CN1CCN2CCN3CCN(CC1)CC(=O)[O][In]([O]C(=O)C2)[O]C(=O)C3)NC(=O)CCC(=O)NCCCOCCOCCOCCCN*; X19 = O=C(O)CN1CCN(CC(=O)O)CCN(CC(=O)N2CCN(Cc3cc(C[*:1])cc(C[*:2])c3)CC2)CCN(CC(=O)O)CC1; DOTA(Lu) = O=C1CN2CCN3CCN(CC(=O)*)CCN(CC2)CC(=O)[O][Lu]([O]1)[O]C(=O)C3; Pro(trans-4-NH2) = O=C([C@@H]1C[C@@H](N[*:3])CN1[*:1])[*:2]; DOTA = O=C(O)CN1CCN(CC(=O)O)CCN(CC(=O)*)CCN(CC(=O)O)CC1; Trp(5-Cl) = N[C@@H](Cc1c[nH]c2ccc(Cl)cc12)C(=O)O; Phe(3,5-Cl2) = N[C@@H](Cc1cc(Cl)cc(Cl)c1)C(=O)O; Pyridine(2,6-diCH2) = c1cc(C[*:1])nc(C[*:2])c1; 1Nal = N[C@@H](Cc1cccc2ccccc12)C(=O)O; mXylylene = c1cc(C[*:1])cc(C[*:2])c1; X6 = c1cc(CSCCN[*:2])nc(C[*:1])c1; Hyp = O=C(O)[C@@H]1C[C@@H](O)CN1; Suc = O=C(CCC(=O)[*:2])[*:1]; Api = NC1(C(=O)O)CCNCC1; Thp = NC1(C(=O)O)CCOCC1; Aib = CC(C)(N)C(=O)O
Molecular target: T1, GIPR (CHO-K1-hGIPR cells) (Homo sapiens, UniProt P48546)
T1 construct: host or cells: CHO-K1
T1 sequence (P48546 22-466): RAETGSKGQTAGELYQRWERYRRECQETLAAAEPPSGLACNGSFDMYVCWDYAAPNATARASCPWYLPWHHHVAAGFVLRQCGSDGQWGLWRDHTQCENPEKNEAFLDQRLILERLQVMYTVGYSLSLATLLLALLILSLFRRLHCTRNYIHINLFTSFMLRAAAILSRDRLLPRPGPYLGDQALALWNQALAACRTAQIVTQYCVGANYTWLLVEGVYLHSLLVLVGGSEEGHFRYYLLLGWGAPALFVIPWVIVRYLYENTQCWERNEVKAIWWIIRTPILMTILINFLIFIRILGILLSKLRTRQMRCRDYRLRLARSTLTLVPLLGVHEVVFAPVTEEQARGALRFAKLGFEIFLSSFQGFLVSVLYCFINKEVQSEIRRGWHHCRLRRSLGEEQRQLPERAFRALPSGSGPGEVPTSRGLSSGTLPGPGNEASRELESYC
Assay: FACS binding assay
Outline: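 Median fluorescence in the APC channel, measured on washed CHO-K1 cells overexpressing human GIPR, was fitted by four-parameter logistic regression against peptide concentration to yield EC50 or IC50 values. Secondary labelling used APC-streptavidin (1 μg/mL, 30 min, ice).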

[1] = competition with 20 nM GIP-057, 4° C. for 1 hour, read-out: pIC50 Category (converted)

IC50 [1]	Structure (SMILES)	other results
10 to 79.4 nM	CC[C@H](C)[C@@H]1NC(=O)[C@H](CC(C)C)NC(=O)C2(CCOCC2)NC(=O)[C@@H](NC(=O)[C@@H](CC(C)C)NC(=O)[C@H](CCC(=O)O)NC(=O)[C@@H]2C[C@@H](NC(=O)CN3CCN(CC(=O)O)CCN(CC(=O)O)CCN(CC(=O)O)CC3)CN2C(=O)[C@H](Cc2cc(Cl)cc(Cl)c2)NC(=O)[C@H](Cc2c[nH]c3ccccc23)NC(=O)[C@H](CC(=O)O)NC(C)=O)CSCc2cccc(n2)CSC[C@@H](C(N)=O)NC1=O [GIP-402, Ac-Asp-Trp-Egn-Tap(DOTA)-Glu-leu-[Cys(2Lut)-Thp-Leu-Ile-Cys]-NH2] (Ac-DW[Phe(3,5-Cl2)][Pro(trans-4-NH2)](DOTA)E[dL]C[Thp]LIC-NH2; linker 7-11 via Pyridine(2,6-diCH2))	
> 1000 nM	CC[C@H](C)[C@@H]1NC(=O)[C@H](CC(C)C)NC(=O)[C@H](C)NC(=O)[C@@H](NC(=O)[C@H](CC(C)C)NC(=O)[C@H](CCC(=O)O)NC(=O)[C@@H]2CCCN2C(=O)[C@@H](Cc2c[nH]c3ccccc23)NC(=O)[C@H](Cc2c[nH]c3ccccc23)NC(=O)[C@H](CC(=O)O)NC(=O)[C@H](Cc2ccc(O)cc2)NC(=O)[C@@H](N)CCSC)CSCc2cccc(c2)CSC[C@@H](C(N)=O)NC1=O [GIP-329, H-Met-Tyr-Asp-Trp-trp-Pro-Glu-Leu-[Cys(3MeBn)-Ala-Leu-Ile-Cys]-NH2] (H-MYDW[dW]PELCALIC-NH2; linker 9-13 via mXylylene)	
> 1000 nM	CC[C@H](C)[C@@H]1NC(=O)[C@H](CC(C)C)NC(=O)[C@@H](C)NC(=O)[C@@H](NC(=O)[C@@H](CC(C)C)NC(=O)[C@H](CCC(=O)O)NC(=O)[C@@H]2CCCN2C(=O)[C@H](Cc2c[nH]c3ccccc23)NC(=O)[C@H](Cc2c[nH]c3ccccc23)NC(=O)CCC(=O)O)CSCc2cc(cc(CN3CCN(C(=O)CN4CCN(CC(=O)O)CCN(CC(=O)O)CCN(CC(=O)O)CC4)CC3)c2)CSC[C@@H](C(N)=O)NC1=O [GIP-286, HO-Succinyl-Trp-Trp-Pro-Glu-leu-[Cys(tMeBn(DOTA-PP))-ala-Leu-Ile-Cys]-NH2] (Suc-WWPE[dL]C[dA]LIC-NH2; linker 6-10 via X19)	

Continued, molecule first:

Structure (SMILES)	IC50 [1]	other results
CC[C@H](C)[C@@H]1NC(=O)[C@H](CC(C)C)NC(=O)C(C)(C)NC(=O)[C@@H](NC(=O)[C@@H](CC(C)C)NC(=O)[C@H](CCC(=O)O)NC(=O)[C@@H]2CCCN2C(=O)[C@H](Cc2cccc3ccccc23)NC(=O)[C@H](Cc2c[nH]c3ccccc23)NC(=O)[C@H](CC(=O)O)NC(C)=O)CSCc2cccc(c2)CSC[C@@H](C(=O)NCCCOCCOCCOCCCNC(=O)CCC(=O)N[C@@H](CCCCNC(=O)CN2CCN3CCN4CCN(CC2)CC(=O)[O][In]([O]C(=O)C3)[O]C(=O)C4)C(N)=O)NC1=O [GIP-165, Ac-Asp-Trp-1Ni-Pro-Glu-leu-[Cys(3MeBn)-Aib-Leu-Ile-Cys]-Ttds-Lys(InDOTA)-NH2] (Ac-DW[1Nal]PE[dL]C[Aib]LIC-X14; linker 7-11 via mXylylene)		IC50 (competition with 20 nM GIP-057, 4° C., 1 hour, read-out: pIC50 Category (converted)): < 10 nM
CC(=O)N[C@@H](CC(=O)O)C(=O)N[C@@H](Cc1c[nH]c2ccccc12)C(=O)N[C@@H](Cc1c[nH]c2ccc(Cl)cc12)C(=O)N1C[C@H](O)C[C@H]1C(=O)N[C@@H](CCC(=O)O)C(=O)N[C@H](CC(C)C)C(=O)N[C@H]1CSCc2cccc(n2)CSC[C@@H](C(N)=O)NC(=O)[C@H](CCCNC(=N)N)NC(=O)[C@H](CC(C)C)NC(=O)C2(CCOCC2)NC1=O [GIP-353, Ac-Asp-Trp-5Clw-Hyp-Glu-leu-[Cys(2Lut)-Thp-Leu-Arg-Cys]-NH2] (Ac-DW[Trp(5-Cl)][Hyp]E[dL]C[Thp]LRC-NH2; linker 7-11 via Pyridine(2,6-diCH2))	> 1000 nM	
CC[C@H](C)[C@@H]1NC(=O)[C@H](CC(C)C)NC(=O)C2(CCN(C(=O)CN3CCN4CCN5CCN(CC3)CC(=O)[O][Lu]([O]C(=O)C5)[O]C(=O)C4)CC2)NC(=O)[C@@H](NC(=O)[C@@H](CC(C)C)NC(=O)[C@H](CCC(=O)O)NC(=O)[C@@H]2C[C@@H](O)CN2C(=O)[C@H](Cc2c[nH]c3ccc(Cl)cc23)NC(=O)[C@H](Cc2c[nH]c3ccccc23)NC(=O)CCC(=O)O)CSCc2cccc(n2)CSCCNC1=O [GIP-171, HO-Succinyl-Trp-5Clw-Hyp-Glu-leu-[Cys(2Lut)-Apc(LuDOTA)-Leu-Ile-AET]] (Suc-W[Trp(5-Cl)][Hyp]E[dL]C[Api](DOTA(Lu))LI; linker 6-C via X6)		IC50 (pIC50 Category, competition with 20 nM GIP-057, 4° C., 1 hour): < 10 nM

Source: patent publication US20250296971A1, “GASTRIC INHIBITORY PEPTIDE RECEPTOR LIGANDS” (priority 2021, published 2025)
